Several values for one entry are separate records, joined by “and”; a condition that tells them apart may be missing. Identical values can stand only once. Square brackets hold non-standard residues; d marks the D form. Peptide text beside a SMILES is read from it. * marks the point of attachment. Dolaproine = CO[C@@H]([C@@H]1CCCN1)[C@@H](C)C(=O)O; Dil = CC[C@H](C)[C@H](NC)[C@@H](CC(=O)O)OC; X1 = C[C@@H](N*)[C@@H](O)c1ccccc1; NMeV = CN[C@H](C(=O)O)C(C)C
How the values were obtained:
Test in all cases: Inhibition of cell line proliferation, CCK8
Assay type in all cases: cell-based
[1] = system: PANC-1 (human pancreatic cancer cells); settings: for IC50: PANC-1, 68-72 hours, CCK8
Description: (§1) Experimental operations: PANC-1 and CFPAC-1 cells were prepared in advance, counted, and plated in 96-well cell culture plates at a cell density of 4×10^4 cells/ml (100 μl/well); negative control and blank control wells were set on each plate. After adherent cell culture overnight, the diluted samples to be tested were added at 50 μl/well. The plates were placed in an incubator at 37° C., 5% CO2 and cultured for 68-72 hours. To each well, 15 μl (10% of the liquid volume in a well) of a color developing solution from CCK8 was added; and the plates were incubated at 37° C. for 45-70 minutes and each plate was read at 450 nm on a microplate reader. The data was edited using SoftMax Pro and a 4-P fitting curve was plotted.
(§2) Experimental operations: LNCaP, SK-BR-3, NCI-H226, CFPAC-1 and PANC-1 cells were prepared in advance and counted; with a culture medium (IMDM+10% FBS+1× L-Glutamine+1×P/S), the cells LNCaP, SK-BR-3 and CFPAC-1 were diluted to 4×10^4 cells/ml, NCI-H226 was diluted to 2.0×10^4 cells/ml and PANC-1 was diluted to 3.0×10^4 cells/ml; the diluted cell solution was plated in 96-well plates at 100 μl/well; and negative control and blank control wells were set on each plate. After adherent cell culture overnight, the diluted samples to be tested were added at 50 μl/well. The plates were placed in an incubator at 37° C., 5% CO2 and cultured for 68-72 hours. To each well, 15 μl (10% of the liquid volume in a well) of a color developing solution from CCK8 was added; and the plates were incubated at 37° C. for 45-70 minutes and each plate was read at 450 nm on a microplate reader. The data was edited using SoftMax Pro and a 4-P fitting curve was plotted.
as §2, with “Operations:” for “operations:”, “MDA-MB-468,” for “SK-BR-3, NCI-H226,”, “MDA-MB-468” for “SK-BR-3”, “cells/ml,” for “cells/ml, NCI-H226 was diluted to 2.0×10^4 cells/ml”

[2] = system: LNCaP (human prostate cancer cells); settings: LNCaP; for IC50: 68-72 hours, CCK8
[3] = system: CFPAC-1 (human pancreatic cancer cells); settings: for IC50: CFPAC-1, 68-72 hours, CCK8
[4] = system: 22RV1 (human prostate cancer cells); settings: for IC50: 22RV1, 68-72 hours, CCK8
Source text: Since different cells have different sensitivity to a cell proliferation inhibitory toxicity of the payload in a ligand conjugate, the quantitative analysis may be interfered occasionally. A series of cell lines with known expression levels of receptors of different ligands were selected and tested for the response to inhibitory effects of the cell proliferation of a ligand conjugate and a single payload. The IC50 ratio of a single payload to that of a ligand conjugate in same cell line were taken to remove such interference.
as §1, with “LNCaP” for “PANC-1”, “22RV1” for “CFPAC-1”, “cells/ml and 2.0×10^4 cells/ml, respectively” for “cells/ml”

Structure (SMILES)	IC50 (MMAE)/IC50 (conjugate) ([1]; PANC-1)	IC50 [1]	IC50 ratio (MMAE/conjugate) [2]	IC50 [2]	IC50 (MMAE)/IC50 (conjugate) ([3]; CFPAC-1)	IC50 [3]	IC50 ratio (MMAE/conjugate) ([4]; 22RV1)	IC50 [4]
CC[C@H](C)[C@@H]([C@@H](CC(=O)N1CCC[C@H]1[C@H](OC)[C@@H](C)C(=O)N[C@H](C)[C@@H](O)c1ccccc1)OC)N(C)C(=O)[C@@H](NC(=O)[C@H](C(C)C)N(C)C(=O)OCc1ccc(NC(=O)C(CCCNC(N)=O)NC(=O)[C@@H](NC(=O)CCCCCN2C(=O)CC(SC[C@H](NC(=O)[C@H](CCCCN)NC(=O)[C@H](CC(=O)O)NC(=O)[C@H](CC(=O)O)NC(=O)Cc3ccc(CNC(=O)NCCCC[C@H](NC(=O)N[C@@H](CCC(=O)O)C(=O)O)C(=O)O)cc3)C(=O)N[C@@H](CCCCNC(=O)CC[C@H](NC(=O)c3ccc(NCc4cnc5[nH]c(N)nc(=O)c5n4)cc3)C(=O)O)C(N)=O)C2=O)C(C)C)cc1)C(C)C (stereo partly drawn) [CB-20BK]	0.020	126 nM	0.0267	95.8 nM	0.027	557 nM	0.013	502 nM
CC[C@H](C)[C@@H]([C@@H](CC(=O)N1CCC[C@H]1[C@H](OC)[C@@H](C)C(=O)N[C@H](C)[C@@H](O)c1ccccc1)OC)N(C)C(=O)[C@@H](NC(=O)[C@@H](NC)C(C)C)C(C)C [MMAE, monomethyl auristatin E] (H-[NMeV]V[Dil][Dolaproine]-X1)	–	2 nM	–	2.55 nM and 3 nM	–	15 nM	–	6.48 nM

From US20220175761A1, “BI-LIGAND DRUG CONJUGATE AND USE THEREOF” (COHERENT BIOPHARMA (SUZHOU), LIMITED, priority 2019, published 2022)
